# From paper PMC5224920, “Assessing the mechanism and therapeutic potential of modulators of the human Mediator complex-associated protein kinases” (eLife, 2016)
# Test system: 12 single or co-culture in vitro tissue models of primary cells
# Assay: Culture/co-culture cell model panel, extracellular biomarkers (DiscoveRx); for CCL2/MCP-1: reference of the scale not given here; for CD141/Thrombomodulin: reference of the scale not given here; for CD142/Tissue Factor: reference of the scale not given here; for CD38: reference of the scale not given here; for CD40: reference of the scale not given here; for CD69: reference of the scale not given here; for CXCL8/IL-8: reference of the scale not given here; for CXCL9/MIG: reference of the scale not given here; for IL-1alpha: reference of the scale not given here; for M-CSF: reference of the scale not given here; for SRB: reference of the scale not given here; for sPGE2: reference of the scale not given here; for sTNF-alpha: reference of the scale not given here
# Format: cell-based, human
# [1] = HDF3CGF stimulated fibroblasts, 4.12E1 nM
# [2] = HDF3CGF stimulated fibroblasts, 4.57E0 nM
# [3] = HPNo Huvec+PBMC unstimulated, 1.00E4 nM
# [4] = HPNo Huvec+PBMC unstimulated, 1.11E3 nM
# [5] = HPNo Huvec+PBMC unstimulated, 1.23E2 nM
# [6] = HPNo Huvec+PBMC unstimulated, 1.37E1 nM
# [7] = HPNo Huvec+PBMC unstimulated, 3.33E3 nM
# [8] = HPNo Huvec+PBMC unstimulated, 3.70E2 nM
# [9] = HPNo Huvec+PBMC unstimulated, 4.12E1 nM
# [10] = HPNo Huvec+PBMC unstimulated, 4.57E0 nM
smiles,measurement,setting,value
Cc1n[nH]c2ncc(C(=O)N3CCC[C@H]3c3ccc(Cl)cc3)cc12 [CMPD4],CXCL9/MIG,[1],-0.024
same,CXCL10/IP-10,[1],0.059
same,CXCL11/I-TAC,[1],-0.035
same,Collagen I,[1],0.021
same,Collagen III,[1],0.082
same,EGFR,[1],-0.094
same,M-CSF,[1],-0.046
same,MMP-1,[1],-0.00129
same,PAI-I,[1],0.033
same,Proliferation_72hr,[1],-0.178
same,SRB,[1],0.010
same,TIMP-1,[1],-0.070
same,TIMP-2,[1],0.099
same,CCL2/MCP-1,[2],-0.020
same,CD54/ICAM-1,[2],-0.041
same,CD106/VCAM-1,[2],0.047
same,CXCL8/IL-8,[2],-0.013
same,CXCL9/MIG,[2],0.00852
same,CXCL10/IP-10,[2],0.000432
same,CXCL11/I-TAC,[2],-0.0056
same,Collagen I,[2],0.023
same,Collagen III,[2],0.081
same,EGFR,[2],-0.043
same,M-CSF,[2],-0.051
same,MMP-1,[2],0.013
same,PAI-I,[2],-0.032
same,Proliferation_72hr,[2],-0.119
same,SRB,[2],0.018
same,TIMP-1,[2],-0.010
same,TIMP-2,[2],0.136
same,CCL2/MCP-1,[3],0.039
same,CD38,[3],0.081
same,CD40,[3],-0.033
same,CD106/VCAM-1,[3],0.342
same,CD141/Thrombomodulin,[3],0.00066
same,CD142/Tissue Factor,[3],0.063
same,CCL2/MCP-1,[4],0.053
same,CD38,[4],-0.040
same,CD40,[4],-0.130
same,CD106/VCAM-1,[4],0.396
same,CD141/Thrombomodulin,[4],0.021
same,CD142/Tissue Factor,[4],0.064
same,CCL2/MCP-1,[5],0.040
same,CD38,[5],-0.022
same,CD40,[5],-0.171
same,CD106/VCAM-1,[5],0.307
same,CD141/Thrombomodulin,[5],0.025
same,CD142/Tissue Factor,[5],0.061
same,CCL2/MCP-1,[6],0.053
same,CD38,[6],-0.066
same,CD40,[6],-0.106
same,CD106/VCAM-1,[6],0.175
same,CD141/Thrombomodulin,[6],0.022
same,CD142/Tissue Factor,[6],0.010
same,CCL2/MCP-1,[7],0.058
same,CD38,[7],0.024
same,CD40,[7],-0.093
same,CD106/VCAM-1,[7],0.305
same,CD141/Thrombomodulin,[7],0.019
same,CD142/Tissue Factor,[7],0.022
same,CCL2/MCP-1,[8],0.274
same,CD38,[8],-0.028
same,CD40,[8],-0.186
same,CD106/VCAM-1,[8],0.375
same,CD141/Thrombomodulin,[8],0.045
same,CD142/Tissue Factor,[8],0.045
same,CCL2/MCP-1,[9],0.148
same,CD38,[9],-0.052
same,CD40,[9],-0.089
same,CD106/VCAM-1,[9],0.250
same,CD141/Thrombomodulin,[9],0.031
same,CD142/Tissue Factor,[9],0.096
same,CCL2/MCP-1,[10],-0.076
same,CD38,[10],-0.060
same,CD40,[10],-0.075
same,CD106/VCAM-1,[10],0.144
same,CD141/Thrombomodulin,[10],0.022
same,CD142/Tissue Factor,[10],0.017
same,CD62E/E-Selectin,"HPNo, 1.00E4 nM",0.080
same,CD69,"HPNo, 1.00E4 nM",0.150
same,CXCL8/IL-8,"HPNo, 1.00E4 nM",0.030
same,CXCL9/MIG,"HPNo, 1.00E4 nM",-0.025
same,M-CSF,"HPNo, 1.00E4 nM",0.075
same,SRB,"HPNo, 1.00E4 nM",-0.053
same,sPGE2,"HPNo, 1.00E4 nM",0.066
same,sTNF-alpha,"HPNo, 1.00E4 nM",-0.036
same,CD62E/E-Selectin,"HPNo, 1.11E3 nM",0.014
same,CD69,"HPNo, 1.11E3 nM",0.063
same,CXCL8/IL-8,"HPNo, 1.11E3 nM",-0.048
same,CXCL9/MIG,"HPNo, 1.11E3 nM",-0.091
same,M-CSF,"HPNo, 1.11E3 nM",0.074
same,SRB,"HPNo, 1.11E3 nM",-0.034
same,sPGE2,"HPNo, 1.11E3 nM",0.043
same,sTNF-alpha,"HPNo, 1.11E3 nM",-0.019
same,CD62E/E-Selectin,"HPNo, 1.23E2 nM",-0.027
same,CD69,"HPNo, 1.23E2 nM",0.039
same,CXCL8/IL-8,"HPNo, 1.23E2 nM",0.011
same,CXCL9/MIG,"HPNo, 1.23E2 nM",-0.025
same,M-CSF,"HPNo, 1.23E2 nM",-0.084
same,SRB,"HPNo, 1.23E2 nM",-0.005
same,sPGE2,"HPNo, 1.23E2 nM",0.030
same,sTNF-alpha,"HPNo, 1.23E2 nM",0.010
same,CD62E/E-Selectin,"HPNo, 1.37E1 nM",-0.035
same,CD69,"HPNo, 1.37E1 nM",-0.005
same,CXCL8/IL-8,"HPNo, 1.37E1 nM",-0.023
same,CXCL9/MIG,"HPNo, 1.37E1 nM",-0.068
same,M-CSF,"HPNo, 1.37E1 nM",0.015
same,SRB,"HPNo, 1.37E1 nM",0.027
same,sPGE2,"HPNo, 1.37E1 nM",0.00254
same,sTNF-alpha,"HPNo, 1.37E1 nM",0.00645
same,CD62E/E-Selectin,"HPNo, 3.33E3 nM",-0.020
same,CD69,"HPNo, 3.33E3 nM",0.040
same,CXCL8/IL-8,"HPNo, 3.33E3 nM",-0.040
same,CXCL9/MIG,"HPNo, 3.33E3 nM",0.018
same,M-CSF,"HPNo, 3.33E3 nM",0.034
same,SRB,"HPNo, 3.33E3 nM",-0.058
same,sPGE2,"HPNo, 3.33E3 nM",0.038
same,sTNF-alpha,"HPNo, 3.33E3 nM",-0.021
same,CD62E/E-Selectin,"HPNo, 3.70E2 nM",0.026
same,CD69,"HPNo, 3.70E2 nM",0.012
same,CXCL8/IL-8,"HPNo, 3.70E2 nM",-0.025
same,CXCL9/MIG,"HPNo, 3.70E2 nM",-0.067
same,M-CSF,"HPNo, 3.70E2 nM",-0.063
same,SRB,"HPNo, 3.70E2 nM",-0.017
same,sPGE2,"HPNo, 3.70E2 nM",0.040
same,sTNF-alpha,"HPNo, 3.70E2 nM",-0.022
same,CD62E/E-Selectin,"HPNo, 4.12E1 nM",-0.00169
same,CD69,"HPNo, 4.12E1 nM",0.020
same,CXCL8/IL-8,"HPNo, 4.12E1 nM",0.023
same,CXCL9/MIG,"HPNo, 4.12E1 nM",-0.041
same,M-CSF,"HPNo, 4.12E1 nM",-0.031
same,SRB,"HPNo, 4.12E1 nM",-0.00266
same,sPGE2,"HPNo, 4.12E1 nM",0.016
same,sTNF-alpha,"HPNo, 4.12E1 nM",0.015
same,CD62E/E-Selectin,"HPNo, 4.57E0 nM",0.045
same,CD69,"HPNo, 4.57E0 nM",0.075
same,CXCL8/IL-8,"HPNo, 4.57E0 nM",0.031
same,CXCL9/MIG,"HPNo, 4.57E0 nM",-0.000203
same,M-CSF,"HPNo, 4.57E0 nM",0.012
same,SRB,"HPNo, 4.57E0 nM",0.035
same,sPGE2,"HPNo, 4.57E0 nM",0.00462
same,sTNF-alpha,"HPNo, 4.57E0 nM",0.128
same,CCL2/MCP-1,"LPS Huvec+PBMC, 1.00E4 nM",-0.081
same,CD40,"LPS Huvec+PBMC, 1.00E4 nM",-0.109
same,CD62E/E-Selectin,"LPS Huvec+PBMC, 1.00E4 nM",0.010
same,CD69,"LPS Huvec+PBMC, 1.00E4 nM",0.030
same,CD106/VCAM-1,"LPS Huvec+PBMC, 1.00E4 nM",0.079
same,CD141/Thrombomodulin,"LPS Huvec+PBMC, 1.00E4 nM",0.127
same,CD142/Tissue Factor,"LPS Huvec+PBMC, 1.00E4 nM",0.079
same,CXCL8/IL-8,"LPS Huvec+PBMC, 1.00E4 nM",-0.169
same,IL-1alpha,"LPS Huvec+PBMC, 1.00E4 nM",0.125
same,M-CSF,"LPS Huvec+PBMC, 1.00E4 nM",0.029
same,SRB,"LPS Huvec+PBMC, 1.00E4 nM",-0.141
same,sPGE2,"LPS Huvec+PBMC, 1.00E4 nM",0.164
same,sTNF-alpha,"LPS Huvec+PBMC, 1.00E4 nM",-0.051
same,CCL2/MCP-1,"LPS Huvec+PBMC, 1.11E3 nM",-0.044
same,CD40,"LPS Huvec+PBMC, 1.11E3 nM",-0.137
same,CD62E/E-Selectin,"LPS Huvec+PBMC, 1.11E3 nM",0.000345
same,CD69,"LPS Huvec+PBMC, 1.11E3 nM",0.043
same,CD106/VCAM-1,"LPS Huvec+PBMC, 1.11E3 nM",0.105
same,CD141/Thrombomodulin,"LPS Huvec+PBMC, 1.11E3 nM",0.090
same,CD142/Tissue Factor,"LPS Huvec+PBMC, 1.11E3 nM",0.097
same,CXCL8/IL-8,"LPS Huvec+PBMC, 1.11E3 nM",-0.191
